Results published in US9365481B2, “Cyclohexenone compositions and process for making thereof” (Golden Biotechnology Corporation, priority 2013, dated 2016).

System: H838
Assay: CCK-8 cell viability assay, H838
Assay type: cell-based, human
Settings: H838 cells, statement in words
Protocol: Cell viability was measured using Cell Counting Kit-8 (CCK-8, Enzo Life Sciences, Farmingdale, N.Y.). In this assay, WST-8 is reduced by dehydrogenases in cells to produce a yellow-colored product (formazan), which is soluble in culture medium. The amount of formazan generated is directly proportional to the number of living cells. After treatment, CCK-8 solution was added to each well and incubated for 4 h. The concentration of formazan was measured with a spectrophotometer at an absorbance wavelength of 450 nm. Cell viability was expressed as a percentage of the corresponding control.
To determine whether the cytotoxic effects of Compound 1 correlate with the presence of Ras mutations, cell lines derived from human lung cancer (A549 and H838), liver cancer (HepG2 and Hep3B), and leukemia (K562 and THP-1) with wild-type Ras (H838, Hep3B, and K562) or mutant Ras (A549, HepG2, and THP-1) were used. Cell viability was measured after 48 h of Compound 1 treatment.
Next, the IC50 values for Compound 1 analogs (Compounds 29, 30 and 31), a metabolite (Compound 27), and analogues isolated from filamentous A. camphorata (Compounds 25, 26, 28) were determined in H838 cells. […] (Table 1)

Question: How did the “cytotoxic effect compared with Compound 1” value turn out when `COC1=C(OCc2ccccc2)C(O)C(C/C=C(\C)CC/C=C(\C)CCC=C(C)C)C(C)C1=O` (stereo not shown) [Compound 31, 3-(benzyloxy)-4-hydroxy-2-methoxy-6-methyl-5-[(2E,6E)-3,7,11-trimethyldodeca-2,6,10-trien-1-yl]cyclohex-2-en-1-one] was run?
Answer: even more cytotoxic than Compound 1
